The values that follow come from PMC9762789, “Chromone-based monoamine oxidase B inhibitor with potential iron-chelating activity for the treatment of Alzheimer’s disease” (Journal of Enzyme Inhibition and Medicinal Chemistry, 2022).

Data set [1] is described as follows: Pharmacokinetic study and brain distribution (UHPLC-MS/MS). The class given is in vivo. The following applies: rats; for AUC(0-t): read-out: AUC0–24; for MRT inf: read-out: MRT0–∞. Here is the method: UHPLC-MS/MS method was adopted to investigate the pharmacokinetic profiles of its metabolites after intravenous (i.v.) administration (2.34 mg/kg) and intragastric (i.g.) administration (15 mg/kg) of 17d in the tail vein of rats.
Rats were purchased from the Zhejiang Academy of Medical Sciences (Hangzhou, China). All rats were kept strictly following the requirements of experimental animal operation instructions, kept at a temperature (22 ± 2 °C), day/night cycle every 12 h in a constant environment. 12 h before the experiment, the rats were fasted but free to drink. For each rat, retro-orbital blood samples (0.2 ml) were obtained into EDTA soaked polythene tubes before drug administration and at time points of 0.083, 0.25, 0.50, 0.75, 1.0, 2.0, 4.0, 6.0, 8.0, 10, 12, and 24 h post-dosing. The collected blood samples were immediately centrifuged at 3500 rpm for 10 min at room temperature to separate plasma, and stored in a −80 °C refrigerator before use. […] The tissue was weighed and homogenised under ice bath conditions and was collected for further processing.
Biological samples were performed with ACQUITY UPLC® H Class system, which was coupled to an Xevo TQ-S micro triple quadrupole mass spectrometer (Waters, Milford, MA, USA) with an ESI source and MassLynx^TM Workstation software version 4.2 (Waters, Milford, MA, USA). We used a BEH Shield RP C18 column (100 × 2.1 mm, 1.7 µm, Waters, Milford, MA, USA) for chromatographic separation, and the column temperature is kept at 30 °C. The mobile phase was composed of 30%, 0.2% formic acid aqueous solution (A) and 70%, 0.3% formic acid methanol solution (B) and is delivered at a flow rate of 0.2 ml/min. The temperature of the autosampler is set to 30 °C. The sample injection volume is 5 µl. Pharmacokinetic parameters of the analytes were calculated using the pharmacokinetic software DAS version 2.0 (Bontz Inc., Beijing, China). All data were expressed as mean ± SD.

Data set [2] can be described thus: iron (III) affinity constants and pFe3+ by spectrophotometric titration. The class given is physicochemical.
Data set [3] concerns scopolamine-induced cognitive impairment mice model. In words: Morris water maze test, scopolamine-induced memory impairment. The data set is classed as in vivo, ICR mice. The source says:
To further explore the in vivo anti-AD effect of compound 17d on the scopolamine-induced cognitive impairment mice model, the Morris Water Maze experiment was selected; data are shown in Figure 7 and Table 5.
Figure 7.
Adult female ICR mice (weight 20–25 g) were obtained from the Zhejiang Academy of Medical Sciences (Hangzhou, China). Scopolamine hydrobromide and Pargyline were purchased from Aladdin Reagents. Memantine was purchased from Energy Chemical. All experiments were approved by the Laboratory Animals Ethical Committee of the Zhejiang University of Technology (No. 20211210103). In this test, mice were prepared as clarified and clear injections, consisting of 20% (2-Hydroxypropyl)-β-cyclodextrin, 10% DMSO, and PBS. […] Mice were administered at a frequency of once a day over 15 d with a fixed dosing schedule. The body weight of mice was measured during the experiment.
After eliminating environmental stress, the behavioural test was performed over the next five days. The mice were trained to find the platform (10 cm diameter) in the circular light-avoidance pool (120 cm diameter and 60 cm height) filled with water (40 cm, depth), which was described in detail in our previous study. All mice received at least one training session daily in four quadrants for four consecutive days before the probe trial of finding the platform within 120 s. Recordings were made with SMART version 3.0 (Panlab, Spain) and processed by Graphpad Prism version 6 software (Graphpad Software Inc., La Jolla, CA, USA).

The mark [4] stands for this setting: rat, plasma, iv, i.v. 2.34 mg/kg, mean ± SD, n = 3.
Setting [5] is: rat, plasma, po, i.g. 15 mg/kg, mean ± SD, n = 3.
[6] abbreviates: DMSO: KCl (0.1 M) = 1:1.5 (v/v).

Read-outs that look alike come from different tables or passages of the source.

For orientation: AUC(0-inf) means the area under the concentration-time curve extrapolated to infinity. A lower AUC(0-inf) goes with low exposure. What is called Cmax is the highest concentration seen after dosing. What is called Tmax is the time at which the peak concentration occurs. One may read the clearance as a measure of how efficiently the substance is removed, as volume per time. Lower therefore signals a low capacity for elimination. A word on the half-life: it is how long it takes for the measured level to halve. The term bioavailability denotes the share of a dose that reaches the circulation, judged against a reference dose that is usually intravenous. Consider `COc1ccc2c(=O)c(CNCCn3ccc(=O)c(O)c3C)coc2c1` [Compound 17d, 3-Hydroxy-1–(2-(((7-methoxy-4-oxo-4H-chromen-3-yl)methyl)amino)ethyl)-2-methylpyridin-4(1H)-one], for which, in data set [1] (setting [4]), the area under the curve AUC(0-inf) turned out to be 749 ± 87.1 ng·h/mL, the Cmax stood at 2150 ± 637 ng/mL, the Tmax is 4.98 min and the clearance is 52.5 mL/min/kg. In data set [1] (setting [4]), the half-life was 19.2 min, the AUC(0-t) turned out to be 745 ± 88.4 ng·h/mL and the MRT inf stood at 15 ± 4.8 min. In addition, in data set [1] (rat, plasma, oral, i.g. 15 mg/kg vs i.v. 2.34 mg/kg, read-out: F (bioavailability)), the bioavailability is 9.25%. In data set [1] (setting [5]), the AUC(0-inf) stood at 444 ± 65.3 ng·h/mL, the highest level (Cmax) was 390 ± 50.1 ng/mL, the time to peak (Tmax) was determined as 15 min and the half-life is 30.6 ± 10.8 min. In data set [1] (setting [5]), the AUC(0-t) was 439 ± 59.6 ng·h/mL and the MRT inf is 48.6 ± 5.4 min. Further, the “Brain 17d content” value in data set [1] (i.g. 15 mg/kg, collected at Cmax time point) was 6.02 ± 0.08 ng/g. Also, in data set [1] (i.v. 2.34 mg/kg, mean ± SD, n = 3), the V worked out at 1.46 ± 0.19 L/kg. Besides, in data set [2] (setting [6]), the “Log β1” value was determined as 13.50, the “Log β2” value is reported as 25.21 and the “Log β3” value came out at 35.13. In data set [2] (calculated from Log β values obtained in DMSO: KCl (0.1 M) = 1:1.5 (v/v)), the “pFe^3+” value is listed as 18.52. Also, in data set [3] (15 mg/kg once a day, after ten days), the “body weight of mice” value was “increased after ten days”. The scopolamine-induced cognitive impairment entry in data set [3] (15 mg/kg, mice, Morris water maze) was “significantly ameliorated”. For the same molecule, in data set [3] (15 mg/kg, scopolamine 15 mg/kg, ICR mice, mean ± SEM, n = 15), the Entries to target was determined as 3.3 ± 0.3.
